Measured values published in ChEMBL document CHEMBL1201862, “PubChem BioAssay data set” (2004).
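48-hour exposure; five concentrations; linearly interpolated endpoints. The concentration for 50% growth inhibition is given as GI50.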 Activity calls are given as the source filed them. Rule as the data show it: active = GI50 up to about 1.1 µM and inactive = higher.

What was measured:
Experiment in all cases: growth of human tumour cells (NCI), 48 h
[1] = test system: UO-31
[2] = test system: NCI-H522
[3] = test system: KM12
[4] = test system: U-251
[5] = test system: A549
[6] = test system: SF-268
[7] = test system: SK-MEL-2
[8] = test system: CCRF-CEM
[9] = test system: OVCAR-4
[10] = test system: OVCAR-3
[11] = test system: TK-10
[12] = test system: HOP-62
[13] = test system: 786-0
[14] = test system: SNB-19
[15] = test system: UACC-62
[16] = test system: MOLT-4
[17] = test system: MDA-N
[18] = test system: SK-OV-3
[19] = test system: NCI-H23

Compound | GI50 [1] | GI50 [2] | GI50 [3] | GI50 [4] | GI50 [5] | GI50 [6] | GI50 [7] | GI50 [8] | GI50 [9] | GI50 [10] | GI50 [11] | GI50 [12] | GI50 [13] | GI50 [14] | GI50 [15] | GI50 [16] | GI50 [17] | GI50 [18] | GI50 [19]
COc1cccc2nc3c(C(=O)NCCN(C)C)cccc3cc12 | 1.11 µM (active) | 1.26 µM (inactive) | 2.3 µM (inactive) | 1.44 µM (inactive) | 0.473 µM (active) | 3.24 µM (inactive) | 4.13 µM (inactive) | 0.518 µM (active) | 1.67 µM (inactive) | 3.14 µM (inactive) | 2.57 µM (inactive) | 1.19 µM (inactive) | 1.16 µM (inactive) | 2.35 µM (inactive) | 2.23 µM (inactive) | 0.325 µM (active) | 2.18 µM (inactive) | 1.43 µM (inactive) | 1.17 µM (inactive)
Oc1cc(-c2cccc(OCc3ccccc3)c2)nc2cc3c(cc12)OCO3 | 0.502 µM (active) | 0.268 µM (active) | 0.491 µM (active) | 0.245 µM (active) | 0.871 µM (active) | 8.34 µM (inactive) | 0.301 µM (active) | 0.274 µM (active) | 2.81 µM (inactive) | 0.304 µM (active) | 2.32 µM (inactive) | 0.44 µM (active) | 0.374 µM (active) | 0.423 µM (active) | 0.37 µM (active) | 0.334 µM (active) | 0.106 µM (active) | 0.342 µM (active) | 0.75 µM (active)
OC(CC(O)(C(F)(F)F)C(F)(F)F)C(O)c1ccco1 (stereo not drawn) | > 10 µM (inactive) | > 10 µM (inactive) | > 10 µM (inactive) | > 10 µM (inactive) | > 10 µM (inactive) | > 10 µM (inactive) | > 10 µM (inactive) | > 10 µM (inactive) | > 10 µM (inactive) | > 10 µM (inactive) | > 10 µM (inactive) | > 10 µM (inactive) | > 10 µM (inactive) | > 10 µM (inactive) | > 10 µM (inactive) | > 10 µM (inactive) | > 10 µM (inactive) | > 10 µM (inactive) | > 10 µM (inactive)
C#C[C@]1(O)CC[C@H]2[C@@H]3CCC4=C/C(=N/CCOC(=O)c5cccc6cc7ccccc7nc56)CC[C@@H]4[C@H]3CC[C@@]21C | 30.5 µM (inactive) | 17.9 µM (inactive) | 20.6 µM (inactive) | 12.7 µM (inactive) | 28.4 µM (inactive) | 20.6 µM (inactive) | 21.7 µM (inactive) | > 100 µM (inactive) | 26 µM (inactive) | 35.5 µM (inactive) | 31.5 µM (inactive) | 35.2 µM (inactive) | 34.5 µM (inactive) | 30.4 µM (inactive) | 22 µM (inactive) | > 100 µM (inactive) | 37.6 µM (inactive) | 64.4 µM (inactive) | 19.9 µM (inactive)
C=CCN1C(=O)/C(=C/c2cccs2)N=C1SC/C=C/C | 44.2 µM (inactive) | 26.9 µM (inactive) | 31.3 µM (inactive) | 37.7 µM (inactive) | 40.7 µM (inactive) | 46.5 µM (inactive) | 27.2 µM (inactive) | 34.8 µM (inactive) | 23.3 µM (inactive) | 44.8 µM (inactive) | 92 µM (inactive) | > 100 µM (inactive) | 36.8 µM (inactive) | 80.9 µM (inactive) | 32.4 µM (inactive) | 14.7 µM (inactive) | 24.7 µM (inactive) | 95.3 µM (inactive) | 44.7 µM (inactive)
N#Cc1c(C#N)c(-c2ccco2)n(-c2ccccc2)c1N | > 100 µM (inactive) | > 100 µM (inactive) | > 100 µM (inactive) | 35.5 µM (inactive) | 59.2 µM (inactive) | 51.9 µM (inactive) | > 100 µM (inactive) | > 100 µM (inactive) | > 100 µM (inactive) | > 100 µM (inactive) | > 100 µM (inactive) | > 100 µM (inactive) | 83.4 µM (inactive) | 39.2 µM (inactive) | > 100 µM (inactive) | > 100 µM (inactive) | > 100 µM (inactive) | 94.4 µM (inactive) | > 100 µM (inactive)
NC1=CN(Cc2ccccc2)C2=N/C(=C\c3ccco3)C(=O)N12 | > 100 µM (inactive) | > 100 µM (inactive) | > 100 µM (inactive) | > 100 µM (inactive) | > 100 µM (inactive) | > 100 µM (inactive) | > 100 µM (inactive) | > 100 µM (inactive) | > 100 µM (inactive) | > 100 µM (inactive) | > 100 µM (inactive) | > 100 µM (inactive) | > 100 µM (inactive) | > 100 µM (inactive) | > 100 µM (inactive) | > 100 µM (inactive) | > 100 µM (inactive) | > 100 µM (inactive) | > 100 µM (inactive)
